Reference: patent US20240010684A1, “MASP INHIBITORY COMPOUNDS AND USES THEREOF” (BAYER AKTIENGESELLSCHAFT, priority 2020, published 2024)
Read-outs that look alike come from different tables or passages of the source. Where a SMILES comes first, the peptide text is derived from it. Bridges are numbered along the chain shown (N, C = ends). [ ]: non-standard residue; d: D form. Oic = O=C(O)[C@@H]1C[C@@H]2CCCC[C@@H]2N1; tBuAla = CC(C)(C)C[C@H](N)C(=O)O; Pen = CC(C)(S)[C@H](N)C(=O)O; Dap = NC[C@H](N)C(=O)O; Ahx = NCCCCCC(=O)O

How the values were obtained:
rat MASP1 = rat MASP1 (Rattus norvegicus (Rat), UniProt Q8CHN8); assay: Biochemical rat MASP1 assay (FRET substrate)
Chain of rat MASP1 (Q8CHN8 other isoform, or with tags, fused parts or gaps): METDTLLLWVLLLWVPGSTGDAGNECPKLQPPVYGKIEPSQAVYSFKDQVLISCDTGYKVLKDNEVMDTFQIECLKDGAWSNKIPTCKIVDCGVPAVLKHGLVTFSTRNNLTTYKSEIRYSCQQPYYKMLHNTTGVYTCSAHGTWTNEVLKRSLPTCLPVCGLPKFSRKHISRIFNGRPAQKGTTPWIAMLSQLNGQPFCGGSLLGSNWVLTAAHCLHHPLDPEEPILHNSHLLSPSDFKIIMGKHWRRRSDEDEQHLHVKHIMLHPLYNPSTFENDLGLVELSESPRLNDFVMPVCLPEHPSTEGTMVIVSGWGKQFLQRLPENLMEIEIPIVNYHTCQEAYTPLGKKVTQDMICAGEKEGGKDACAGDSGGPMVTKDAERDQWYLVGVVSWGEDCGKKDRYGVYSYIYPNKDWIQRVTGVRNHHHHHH
Description: A truncated cDNA sequence of rat MASP1encoding the fragment corresponding to the amino acids 302-704 with a C-terminal His Tag and N-terminal Ig-kappa secretion signal (SEQ ID No: 4) was subcloned into the mammalian expression vector pcDNA3.1 (Invitrogen).
(§1) The MASP1 or MASP2 expression vectors were transfected into the HEK293 (ATCC No. CRL-1573) cell line using Lipofectamine LTX® Reagent (Thermo-Fischer), as described by the manufacturer. The mature form of the recombinant rat MASP1 and MASP2 proteases were secreted into the culture medium. The MASP1 and MASP2 proteins were purified from the conditioned media by affinity chromatography on Ni-NTA Superflow resin (Qiagen) as described by the manufacturer.
4.2 Biochemical Rat MASP1 Assay.
Recombinant rat MASP1 enzyme produced in the HEK 293 cells was diluted in the reaction buffer (50 mM HEPES pH 8,0; 100 mM NaCl; 0,01% CHAPS; 0.5 mM Gluthathione) to the concentration of 4 nM and 25 μl was transferred into each single well of 384-well white microtiter plate (Greiner Bio One 781075). 1 μl of the inhibitor compound solution (dissolved in DMSO, at the corresponding concentration) or pure DMSO as a control was added to the same wells. The enzymatic reaction was initiated by addition of 25 μl of 40 μM solution of the FRET substrate Dabcyl-[…]-Glu(Edans)-NH2; (Dabcyl-4-((4-(dimethylamino)phenyl)azo)benzoic acid; Edans-5-[(2-Aminoethyl) amino]naphthalene-1-sulfonyl; custom synthesis by Jerini Peptide Technologies, Berlin) in the reaction buffer. The microtiter plate was incubated for 60-120 min at the temperature of 32 C. The increase of fluorescence intensity was measured in appropriate fluorescence plate reader (e.g. TECAN Ultra) using excitation wavelength of 340 nm and emission wavelength of 490 nm. IC50 values were calculated from percentage of inhibition of rat […] activity as a function of test compound concentration.

[1] = test system: Human C3-DEPOSITION SERUM; assay: C3 deposition assay, human serum on mannan-coated plates; type: biochemical; conditions: Average IC50, read-out: Human C3-DEPOSITION SERUM IC50
How it was run: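 Plates coated overnight at 4° C with S. cerevisiae mannan (10 μg/mL, pH 9.6), blocked with 1% BSA in TBS 2 h at 37° C; washes in TBS/0.05% Tween 20/5 mM CaCl2. Antibodies diluted in wash buffer with 0.5% BSA. Colorimetric read-out at 450 nm.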

human MASP1 = human MASP1 (Homo sapiens (Human), UniProt P48740); assay: Biochemical human MASP1 assay (FRET substrate)
Chain of human MASP1 (P48740 other isoform, or with tags, fused parts or gaps): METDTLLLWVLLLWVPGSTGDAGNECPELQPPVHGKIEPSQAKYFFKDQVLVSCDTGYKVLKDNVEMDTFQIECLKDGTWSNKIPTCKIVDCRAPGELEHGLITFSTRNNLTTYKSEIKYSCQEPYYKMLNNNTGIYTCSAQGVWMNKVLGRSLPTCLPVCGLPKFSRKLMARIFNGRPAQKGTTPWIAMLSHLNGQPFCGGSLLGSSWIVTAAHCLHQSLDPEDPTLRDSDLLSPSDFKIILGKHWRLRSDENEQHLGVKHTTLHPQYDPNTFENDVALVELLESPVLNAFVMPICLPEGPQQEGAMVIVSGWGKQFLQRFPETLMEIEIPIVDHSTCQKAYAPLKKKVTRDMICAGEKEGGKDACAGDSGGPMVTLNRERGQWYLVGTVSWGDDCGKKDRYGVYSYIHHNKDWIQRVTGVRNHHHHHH
How it was run: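 IC50 derived from % inhibition versus compound concentration, with fluorescence increase read at 320/420 nm after 60-120 min at 32 C. Enzyme: HEK293-secreted, His-tagged human MASP1 fragment 297-699 at 20 nM in HEPES pH 8,0 buffer with NaCl, CHAPS, glutathione; substrate ABZ-peptide-Lys(Dnp)-NH2 added as 20 μM solution.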

rat MASP2 = rat MASP2 (Rattus norvegicus (Rat), UniProt Q9JJS8); assay: Biochemical rat MASP2 assay (FRET substrate)
Chain of rat MASP2 (Q9JJS8 other isoform, or with tags, fused parts or gaps): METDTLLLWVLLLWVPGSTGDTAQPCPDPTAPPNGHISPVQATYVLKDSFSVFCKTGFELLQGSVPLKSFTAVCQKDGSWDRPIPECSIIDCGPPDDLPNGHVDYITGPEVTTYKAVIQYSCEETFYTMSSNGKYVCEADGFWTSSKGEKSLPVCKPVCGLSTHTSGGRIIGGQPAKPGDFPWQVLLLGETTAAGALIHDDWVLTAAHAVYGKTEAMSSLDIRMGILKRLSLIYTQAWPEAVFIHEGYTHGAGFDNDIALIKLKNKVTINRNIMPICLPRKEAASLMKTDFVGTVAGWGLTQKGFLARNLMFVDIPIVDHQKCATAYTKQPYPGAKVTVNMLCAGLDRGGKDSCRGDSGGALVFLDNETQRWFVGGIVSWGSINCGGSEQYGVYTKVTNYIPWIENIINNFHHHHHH
Description: as §1, with “The mature form of the recombinant rat MASP1 and MASP2 proteases were secreted into the culture medium.” left out, “M[…]” for “MASP2 proteins”

human MASP2 = human MASP2 (Homo sapiens (Human), UniProt O00187); assay: Biochemical human MASP2 assay (FRET substrate)
Chain of human MASP2 (O00187 other isoform, or with tags, fused parts or gaps): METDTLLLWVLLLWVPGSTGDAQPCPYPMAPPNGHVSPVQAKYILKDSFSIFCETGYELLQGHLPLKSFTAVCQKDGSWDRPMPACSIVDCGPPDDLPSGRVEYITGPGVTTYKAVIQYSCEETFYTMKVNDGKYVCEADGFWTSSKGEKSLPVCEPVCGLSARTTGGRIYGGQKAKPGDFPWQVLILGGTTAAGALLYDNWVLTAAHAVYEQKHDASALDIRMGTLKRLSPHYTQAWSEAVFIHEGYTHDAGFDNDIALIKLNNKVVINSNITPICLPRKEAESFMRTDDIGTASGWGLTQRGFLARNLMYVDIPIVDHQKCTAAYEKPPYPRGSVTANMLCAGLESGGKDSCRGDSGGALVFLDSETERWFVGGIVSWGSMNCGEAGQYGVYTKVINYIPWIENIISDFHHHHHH
How it was run: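 IC50 came from % inhibition across compound concentrations, with fluorescence (ex 340 nm, em 490 nm) read after 60-120 min at 32 C. Substrate was a DABCYL FRET peptide, added as a 60 μM solution, cleaved by HEK293-expressed, Ni-NTA-purified mature recombinant human MASP2.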

[2] = Average IC50, recombinant rat MASP1, read-out: rat MASP1 IC50
[3] = Average IC50, recombinant human MASP1, read-out: human MASP1 IC50
[4] = Average IC50, recombinant rat MASP2, read-out: rat MASP2 IC50
[5] = Average IC50, recombinant human MASP2, read-out: human MASP2 IC50

IC50 (rat MASP1; [2]) | IC50 [1] | IC50 (human MASP1; [3]) | IC50 (rat MASP2; [4]) | IC50 (human MASP2; [5]) | SMILES | IC50 (rat MASP1) | IC50 (human MASP1) | IC50 (rat MASP2) | IC50 (human MASP2)
290 nM | 18.5 nM | 5.7 nM | 64 nM | 91 nM | CC[C@H](C)[C@@H]1NC(=O)[C@H](CN)NC(=O)[C@H](CN)NC(=O)[C@@H]2CCCN2C(=O)[C@H]([C@@H](C)CC)NC(=O)[C@H]2NC(=O)[C@H]([C@@H](C)CC)NC(=O)[C@@H]3C[C@@H]4CCCC[C@@H]4N3C(=O)[C@@H]3CCCN3C(=O)[C@H](CC(C)C)NC(=O)[C@H](CO)NC(=O)[C@H](CCCNC(=N)N)NC(=O)[C@H](CO)NC(=O)[C@H](CSSC2(C)C)NC1=O [Example 89] | – | – | – | –
410 nM | 274 nM | 35 nM | 68 nM | 45 nM | CC[C@H](C)[C@@H]1NC(=O)CNC(=O)[C@@H](N)CCC(=O)NC[C@@H](C(N)=O)NC(=O)[C@H](CC(=O)O)NC(=O)[C@@H]2CCCN2C(=O)[C@H]([C@@H](C)CC)NC(=O)[C@H]2NC(=O)[C@H]([C@@H](C)CC)NC(=O)[C@@H]3C[C@@H]4CCCC[C@@H]4N3C(=O)[C@@H]3CCCN3C(=O)[C@H](CC(C)C)NC(=O)[C@H](CO)NC(=O)[C@H](CCCNC(=N)N)NC(=O)[C@H](CO)NC(=O)[C@H](CSSC2(C)C)NC1=O [Example 93] (H-EGICSRSLP[Oic]I[Pen]IPD[Dap]-NH2; lactam 1-16; disulfide 4-12) | – | – | – | –
– | – | – | – | – | CC[C@H](C)[C@@H]1NC(=O)c2ccc(cc2)CNC(=O)CCCCCNC(=O)[C@@H]2CCCN2C(=O)[C@H]([C@@H](C)CC)NC(=O)[C@H]2NC(=O)[C@H]([C@@H](C)CC)NC(=O)[C@@H]3CCCN3C(=O)[C@@H]3CCCN3C(=O)[C@H](CC(C)(C)C)NC(=O)[C@H](CO)NC(=O)[C@H](CCCNC(=N)N)NC(=O)[C@H](CO)NC(=O)[C@H](CSSC2(C)C)NC1=O [Example 68, N-{3-[(1R,4S,7S,13S,19S,22S,25S,28S,31R,34S,51S,57S)-4,34,57-tri[(2S)-butan-2-yl]-19-(2,2-dimethylpropyl)-22,28-bis(hydroxymethyl)-60,60-dimethyl-3,6,12,18,21,24,27,30,33,36,43,50,56,59-tetradecaoxo-61,62-dithia-2,5,11,17,20,23,26,29,32,35,42,49,55,58-tetradecaazahexacyclo[29.28.4.2^37,400.0^7,110.0^13,170.0^51,55]pentahexaconta-37,39,64-trien-25-yl]propyl}guanidine] | 30.8 nM | 6.1 nM | 2.97 nM | 2.57 nM
63 nM | 3.3 nM | 4.1 nM | 24 nM | 17 nM | CC[C@H](C)[C@@H]1NC(=O)CCCNC(=O)[C@H](CC(=O)O)NC(=O)[C@@H]2CCCN2C(=O)[C@H]([C@@H](C)CC)NC(=O)[C@H]2NC(=O)[C@H]([C@@H](C)CC)NC(=O)[C@@H]3CCCN3C(=O)[C@@H]3CCCN3C(=O)[C@H](CC(C)(C)C)NC(=O)[C@H](CO)NC(=O)[C@H](CCCNC(=N)N)NC(=O)[C@H](CO)NC(=O)[C@H](CSSC2(C)C)NC1=O [Example 35] | – | – | – | –
1000 nM | – | 145 nM | 232 nM | 895 nM | CC[C@H](C)[C@@H]1NC(=O)CNC(=O)[C@H](CC(=O)O)NC(=O)[C@@H]2CCCN2C(=O)[C@H]([C@@H](C)CC)NC(=O)[C@@H]2CSSC[C@H](NC1=O)C(=O)N[C@@H](CO)C(=O)N[C@@H](CCCNC(=N)N)C(=O)N[C@@H](CO)C(=O)N[C@@H](CC(C)C)C(=O)N1CCC[C@H]1C(=O)N1CCC[C@H]1C(=O)N[C@@H]([C@@H](C)CC)C(=O)N2 [Ref. No 7, reference compound] (cyclo(CIPDGICSRSLPPI); disulfide 1-7) | – | – | – | –
27 nM | – | 7.2 nM | 1.4 nM | 14 nM | CC[C@H](C)[C@@H]1NC(=O)CCCCCNC(=O)CC[C@@H](C(N)=O)NC(=O)[C@@H]2CCCN2C(=O)[C@H]([C@@H](C)CC)NC(=O)[C@H]2NC(=O)[C@H]([C@@H](C)CC)NC(=O)[C@@H]3C[C@@H]4CCCC[C@@H]4N3C(=O)[C@@H]3CCCN3C(=O)[C@H](CC(C)C)NC(=O)[C@H](CO)NC(=O)[C@H](CCCNC(=N)N)NC(=O)[C@H](CO)NC(=O)[C@H](CSSC2(C)C)NC1=O [Example 75] ([Ahx]ICSRSLP[Oic]I[Pen]IPE-NH2; disulfide 3-11; lactam N-14) | – | – | – | –
85 nM | – | 6.3 nM | 14 nM | 48 nM | CC[C@H](C)[C@@H]1NC(=O)[C@H](C)NC(=O)CCCCCNC(=O)[C@H]([C@@H](C)CC)NC(=O)[C@H]2NC(=O)[C@H]([C@@H](C)CC)NC(=O)[C@@H]3CCCN3C(=O)[C@@H]3CCCN3C(=O)[C@H](CC(C)(C)C)NC(=O)[C@H](CO)NC(=O)[C@H](CCCNC(=N)N)NC(=O)[C@H](CO)NC(=O)[C@H](CSSC2(C)C)NC1=O [Example 72, N-{3-[(5aS,11S,14S,17S,20S,23R,26S,29S,39S,42R,45S,47aS)-26,39,45-tri[(2S)-butan-2-yl]-11-(2,2-dimethylpropyl)-14,20-bis(hydroxymethyl)-29,48,48-trimethyl-5,10,13,16,19,22,25,28,31,38,41,44,47-tridecaoxohexatetracontahydro-5H-23,42-(methanodithiomethano)dipyrrolo[2,1-1:2′,1′-o][1,4,7,10,13,16,19,22,25,28,31,34,37]tridecaazacyclotritetracontin-17-yl]propyl}guanidine] (cyclo(AICSRS[tBuAla]PPI[Pen]I[Ahx]); disulfide 3-11) | – | – | – | –
1000 nM | – | 4800 nM | 1000 nM | 5000 nM | CC[C@H](C)[C@@H]1NC(=O)[C@@H]2CCCN2C(=O)[C@@H]2CCCN2C(=O)[C@H]([C@@H](C)CC)NC(=O)[C@@H]2CSSC[C@H](NC(=O)[C@H]([C@@H](C)O)NC(=O)[C@H](CCCCN)NC(=O)[C@H](CO)NC1=O)C(=O)N[C@@H](CCCNC(=N)N)C(=O)NCC(=O)N[C@@H](CC(=O)O)C(=O)N1CCC[C@H]1C(=O)N[C@@H](Cc1ccccc1)C(=O)N2 [Ref. No 12, reference compound] (cyclo(RGDPFCIPPISKTC); disulfide 6-14) | – | – | – | –
79 nM | – | 19 nM | 16 nM | 29 nM | CC[C@H](C)[C@@H]1NC(=O)CNC(=O)CCCCCNC(=O)[C@H](CC(=O)O)NC(=O)[C@@H]2CCCN2C(=O)[C@H]([C@@H](C)CC)NC(=O)[C@H]2NC(=O)[C@H]([C@@H](C)CC)NC(=O)[C@@H]3CCCN3C(=O)[C@@H]3CCCN3C(=O)[C@H](CC(C)(C)C)NC(=O)[C@H](CO)NC(=O)[C@H](CCCNC(=N)N)NC(=O)[C@H](CO)NC(=O)[C@H](CSSC2(C)C)NC1=O [Example 28] (cyclo([Ahx]GICSRS[tBuAla]PPI[Pen]IPD); disulfide 4-12) | – | – | – | –
